# Experimental data from patent publication US20210278408A1, “METHODS OF TREATMENT OF CANCER WITH SUBSTITUTED PYRROLE AND PYRAZOLE COMPOUNDS AND DIAGNOSIS OF CANCERS SUSCEPTIBLE TO TREATMENT WITH SUBSTITUTED PYRROLE AND PYRAZOLE COMPOUNDS” (Bantam Pharmaceutical, LLC, priority 2018, published 2021).
# Like-named read-outs stand apart in the source and are kept apart here.
# Test system: 407 cancer cell lines
# Test: Cell viability of cancer cell lines (IC50), CellTiter-Glo Viability Assay, 96 h
# Format: cell-based
# Conditions: for IC50: read-out: Absolute IC50
# Protocol: Viability was determined by using the 50% inhibitory concentration (IC50) as determined with the CellTiter-Glo® Viability Assay (Promega).
# Experiments were initiated by first thawing and equilibrating the CellTiter-Glo® Buffer to room temperature. The lyophilized CellTiter-Glo® Substrate was also equilibrated to room temperature. The lyophilized substrate was reconstituted with the CellTiter-Glo® buffer to form the CellTiter-Glo® Reagent.
# Cells were harvested during the logarithmic growth period, counted, and the cell concentration adjusted to 4.44×10^4 cells/mL using culture medium.
# Cells were allowed to grow overnight and the following day, the TO reading was obtained by adding 10 μL culture medium to each well of Plate A. The plate was allowed to equilibrate at room temperature for thirty minutes, after which 50 μL CellTiter-Glo® reagent was added to each well. The contents were mixed for 5 min on an orbital shaker to induce cell lysis. Plates were incubated for 20 minutes to stabilize the luminescent signal and the TO luminescence recorded.
# Test plate B was incubated for 96 h in the humidified incubator at 37° C. with 5% CO2.
# Following the incubation, the plate was equilibrated at room temperature for thirty minutes. CellTiter-Glo® (50 μL) was added to each well of the plate and contents mixed for five minutes on an orbital shaker to induce cell lysis. The luminescent signal was allowed to stabilize at room temperature for 20 minutes and the luminescence recorded.
# IC50 (EC50) was calculated using a dose-response curve, fitted using a nonlinear regression model with a sigmoidal dose response. Survival rate was calculated using the formula:
# The Surviving rate (%)=(LumTest article−LumMedium control)/(LumNon-treated−LumMedium control)×100%.
# Absolute IC50 (EC50) was calculated according to the dose-response curve generated by the statistical software (GraphPad Prism 5.0).
smiles,measurement,setting,value
"N.N.[Cl][Pt][Cl] [Cisplatin, reference compound]",IC50,"22Rv1 cells, 96 h",3.05 µM
same,IC50,"769-P cells, 96 h",0.97 µM
same,IC50,"786-O cells, 96 h",1.43 µM
same,IC50,8505C,2.01 µM
same,IC50,"A3/KAW cells, 96 h",0.93 µM
same,IC50,"A253 cells, 96 h",1.24 µM
same,IC50,"A498 cells, 96 h",4.28 µM
same,IC50,"A549 cells, 96 h",4.35 µM
same,IC50,"A875 cells, 96 h",1.86 µM
same,IC50,"A2058, 96 h",0.77 µM
same,IC50,"A2780 cells, 96 h",1.38 µM
same,IC50,"A2780cis cells, 96 h",5.55 µM
same,IC50,"A-172 cells, 96 h",8.58 µM
same,IC50,"A-204 cells, 96 h",1.05 µM
same,IC50,"A-375, 96 h",1.04 µM
same,IC50,"A-427 cells, 96 h",5.78 µM
same,IC50,"A-431, 96 h",2.07 µM
same,IC50,"A-673 cells, 96 h",0.26 µM
same,IC50,"ACHN cells, 96 h",1.74 µM
same,IC50,"AGS cells, 96 h",4.99 µM
same,IC50,"AMO-1 cells, 96 h",1.92 µM
same,IC50,"AN3 CA, 96 h",3 µM
same,IC50,"ASH-3 cells, 96 h",2.72 µM
same,% inhibition at top conc.,"AsPC-1 cells, 96 h",78.18%
same,IC50,"AsPC-1 cells, 96 h",4.94 µM
same,IC50,"BT474 cells, 96 h",59 µM
same,IC50,"BT-20 cells, 96 h",2.15 µM
same,% inhibition at top conc.,BT-483,75.40%
same,IC50,BT-483,48.2 µM
same,IC50,"BT-549 cells, 96 h",4.7 µM
same,IC50,BxPC-3,1.27 µM
same,IC50,"C4-2, 96 h",14.9 µM
same,% inhibition at top conc.,"C666-1 cells, 96 h",73.03%
same,IC50,"C666-1 cells, 96 h",18.1 µM
same,IC50,"C-33 A cells, 96 h",0.92 µM
same,IC50,CADO-ES1,1.03 µM
same,IC50,"CAL-27 cells, 96 h",0.89 µM
same,IC50,CAL-120,7.91 µM
same,IC50,"CAMA-1, 96 h",9.44 µM
same,IC50,"CCK-81 cells, 96 h",4.51 µM
same,IC50,CCRF-CEM,0.55 µM
same,IC50,CFPAC-1,4.13 µM
same,IC50,"COLO 205, 96 h",1.97 µM
same,IC50,"COLO 320DM, 96 h",3.18 µM
same,IC50,"COV644 cells, 96 h",14.2 µM
same,IC50,"Ca Ski cells, 96 h",6.44 µM
same,IC50,Caki-2,3.35 µM
same,IC50,Calu-1,4.77 µM
same,% inhibition at top conc.,"Calu-3, 96 h",77.35%
same,IC50,"Calu-3, 96 h",0.35 µM
same,IC50,Calu-6,0.71 µM
same,IC50,"Caov-3 cells, 96 h",3.61 µM
same,IC50,Capan-1,0.68 µM
same,IC50,Capan-2,21.9 µM
same,IC50,"CoC1/DDP cells, 96 h",5.78 µM
same,IC50,"CoC1 cells, 96 h",3.24 µM
same,IC50,DLD-1,2.43 µM
same,IC50,"DMS 53 cells, 96 h",2.85 µM
same,IC50,DMS 79,0.81 µM
same,IC50,"DMS 114 cells, 96 h",2.02 µM
same,IC50,"DOHH-2 cells, 96 h",0.19 µM
same,IC50,"DU 145, 96 h",1.15 µM
same,IC50,DU4475,1.35 µM
same,IC50,"DV-90 cells, 96 h",3.25 µM
same,IC50,"Daoy cells, 96 h",0.39 µM
same,IC50,"Daudi cells, 96 h",0.21 µM
same,IC50,"Detroit 562 cells, 96 h",1.35 µM
same,IC50,"DoTc2 4510 cells, 96 h",2.84 µM
same,IC50,"EBC-1, 96 h",4.61 µM
same,IC50,"EFM-192A, 96 h",11.3 µM
same,IC50,"EJM cells, 96 h",6.74 µM
same,IC50,EOL-1,0.46 µM
same,IC50,"ES-2 cells, 96 h",3.51 µM
same,IC50,FTC-133,0.98 µM
same,IC50,"G-292 clone A141B1 cells, 96 h",1.11 µM
same,IC50,"GTL-16 cells, 96 h",1.09 µM
same,IC50,"H4 cells, 96 h",2.26 µM
same,IC50,HBL-1,1.21 µM
same,IC50,HCC38,2.86 µM
same,IC50,"HCC 94 cells, 96 h",1.98 µM
same,IC50,"HCC827 cells, 96 h",8.58 µM
same,IC50,"HCC1187 cells, 96 h",2.01 µM
same,IC50,HCC1428,34.9 µM
same,IC50,HCC1500,7.64 µM
same,IC50,HCC1569,5.78 µM
same,IC50,"HCC1806 cells, 96 h",2.23 µM
same,IC50,HCC1937,5.07 µM
same,IC50,HCC1954,7.18 µM
same,IC50,"HCC2218, 96 h",10.8 µM
same,IC50,HCC2935,51.7 µM
same,IC50,"HCC4006, 96 h",5.76 µM
same,IC50,"HCC-78 cells, 96 h",2.25 µM
same,IC50,HCCC-9810,2.96 µM
same,% inhibition at top conc.,"HCCLM3 cells, 96 h",60.88%
same,IC50,"HCCLM3 cells, 96 h",10.8 µM
same,IC50,HCT-8,9.04 µM
same,IC50,HCT-15,3.26 µM
same,IC50,HCT-116,4.03 µM
same,% inhibition at top conc.,"HEC-1-A cells, 96 h",83.97%
same,IC50,"HEC-1-A cells, 96 h",13.3 µM
same,IC50,"HEC-1-B cells, 96 h",10.6 µM
same,IC50,HEL 92.1.7,0.48 µM
same,IC50,"HGC-27 cells, 96 h",0.77 µM
same,IC50,HL-60,1.15 µM
same,IC50,"HLE cells, 96 h",2.48 µM
same,IC50,"HM-7, 96 h",6.26 µM
same,IC50,HPAC,14.3 µM
same,IC50,"HT-3 cells, 96 h",4.85 µM
same,IC50,HT-29,2.89 µM
same,IC50,HT-55,17.7 µM
same,IC50,"HT-1080, 96 h",3.53 µM
same,IC50,HT-1376,3.28 µM
same,IC50,"HeLa 229 cells, 96 h",7.25 µM
same,IC50,"HeLa cells, 96 h",0.28 µM
same,IC50,Hep3B,3.08 µM
same,IC50,"Hep G2/C3A, 96 h",1.84 µM
same,IC50,Hep G2,4.51 µM
same,IC50,"HuCCT1, 96 h",10 µM
same,IC50,HuT 78,0.5 µM
same,IC50,"IHH-4 cells, 96 h",2.65 µM
same,IC50,"IM95m cells, 96 h",8.43 µM
same,IC50,"IMR-32 cells, 96 h",0.06 µM
same,IC50,"Ishikawa, 96 h",2.75 µM
same,IC50,"J82 cells, 96 h",0.31 µM
same,IC50,JAR,0.61 µM
same,IC50,"JEG-3 cells, 96 h",0.52 µM
same,IC50,"JHH-1 cells, 96 h",6.04 µM
same,IC50,"JHH-4 cells, 96 h",1.07 µM
same,IC50,"JHH-5 cells, 96 h",0.85 µM
same,IC50,"JHH-7 cells, 96 h",1.83 µM
same,IC50,"JIMT-1 cells, 96 h",6.96 µM
same,IC50,"JJN-3 cells, 96 h",4.08 µM
same,IC50,JVM-2,1.46 µM
same,IC50,JVM-3,1.12 µM
same,IC50,JVM-13,0.54 µM
same,IC50,"JeKo-1 cells, 96 h",1.36 µM
same,IC50,Jurkat clone E6-1,0.47 µM
same,IC50,K-562,5.73 µM
same,IC50,"KARPAS-299 cells, 96 h",0.89 µM
same,IC50,KARPAS-422,1.11 µM
same,% inhibition at top conc.,"KATO III, 96 h",67.05%
same,IC50,"KATO III, 96 h",10.5 µM
same,IC50,KG-1,2.02 µM
same,IC50,"KHOS/NP cells, 96 h",1.33 µM
same,IC50,"KMH-2 cells, 96 h",2.65 µM
same,IC50,KMS-11,2.16 µM
same,IC50,"KP4 cells, 96 h",6.25 µM
same,IC50,KPL-4,1.37 µM
same,IC50,KYSE-70,6.11 µM
same,IC50,KYSE-150,1.79 µM
same,IC50,KYSE-270,2.15 µM
same,IC50,"KYSE-410 cells, 96 h",13.5 µM
same,IC50,Kasumi-1,2.92 µM
same,IC50,L-82,1.16 µM
same,IC50,L-363,1.83 µM
same,IC50,"LN-18 cells, 96 h",0.7 µM
same,IC50,"LN-229 cells, 96 h",7.68 µM
same,IC50,"LNCaP clone FGC, 96 h",3.43 µM
same,IC50,LP-1,7.62 µM
same,IC50,"LS123 cells, 96 h",12 µM
same,IC50,LS 180,6.27 µM
same,IC50,LS411N,15.1 µM
same,IC50,"LS513 cells, 96 h",2.81 µM
same,IC50,"LS1034 cells, 96 h",6.52 µM
same,IC50,Li-7,0.63 µM
same,IC50,LoVo,8.27 µM
same,IC50,"M059K cells, 96 h",2.66 µM
same,IC50,"MC/CAR cells, 96 h",3.15 µM
same,IC50,MCF7,11.8 µM
same,IC50,MDA-MB-231,23 µM
same,IC50,MDA-MB-415,37.9 µM
same,IC50,"MDA-MB-436, 96 h",0.5 µM
same,IC50,MDA-MB-453,4.86 µM
same,IC50,"MDA-MB-468 cells, 96 h",0.27 µM
same,IC50,"ME-180 cells, 96 h",0.84 µM
same,IC50,MEG-01,1.9 µM
same,IC50,"MES-SA cells, 96 h",0.66 µM
same,IC50,"MES-SA/DX5 cells, 96 h",2.77 µM
same,IC50,"MFE-296 cells, 96 h",3.31 µM
same,% inhibition at top conc.,MHCC97-H,83.30%
same,IC50,MHCC97-H,7.89 µM
same,IC50,MIA PaCa-2,2.74 µM
same,IC50,"MKN1 cells, 96 h",1.46 µM
same,IC50,"MKN45, 96 h",5.47 µM
same,% inhibition at top conc.,"MKN74 cells, 96 h",84.20%
same,IC50,"MKN74 cells, 96 h",11.2 µM
same,IC50,ML-2,1.21 µM
same,IC50,MM.1R,0.81 µM
same,IC50,MM.1S,1.02 µM
same,IC50,"MOLM-13 cells, 96 h",0.78 µM
same,IC50,"MOLM-16 cells, 96 h",0.87 µM
same,IC50,"MOLP8 cells, 96 h",1.75 µM
same,IC50,"MS751 cells, 96 h",4.61 µM
